Earlier results, collected in patent US20180055935A1, “METHOD FOR THE PRODUCTION OF A FORMULATION OF A HYPERICIN SALT” (Sanochemia Pharmazeutika AG, priority 2015, published 2018).

Test system: bladder carcinoma
Conditions: hypericin 30 μM using polyethylene glycol, 595 nm, 25 up to 50 mW/cm^2

In the case of `Cc1cc(O)c2c(=O)c3c(O)cc(O)c4c5c(O)cc(O)c6c(=O)c7c(O)cc(C)c8c1c2c(c34)c(c78)c65` [hypericin, 1,3,4,6,8,13-hexahydroxy-10, 11-dimethylphenanthro (1,10,9,8-opqra)perylene-7, 14-dione], the tumor cells killed is given as “up to 98%”.
